Laboratory results taken from patent publication US4594238A (Regents of University of Minnesota, priority 1984, dated 1986).
Where two headings read alike, the source gives them in different places.

Tests used:
[1] = rats; cited from earlier work
[2] = Urinary excretion of free and conjugated DDTC; assay type: in vivo, rats; conditions: rat, urine, ip, 500 mg/kg, NaDDTC 500 mg/kg ip
From the text: Intravenous administration was explored in an attempt to deliver larger quantities of free DDTC anion to the likely site of toxicity in the renal tubule; urinary excretion of DDTC was monitored as a means of estimating changes in tubular levels of free DDTC. The standard assay for DDTC anion utilizes a spectrophotometric determination following reaction with cupric ion to form the colored Cu(DDTC)2 complex. Unfortunately, the affinity of cupric ion for sulfur ligands is such that this metal ion will catalyze the decomposition of the DDTC glucuronide and therefore will not discriminate between free and conjugated DDTC. Ferric ion does react selectively with the free ligand, thereby providing a convenient assay for both free and total DDTC in urine.
Excretion of free and conjugated NaDDTC in the urine of rats was measured as follows. NaDDTC was administered in selected doses via intraperitoneal or intravenous injection. Rats were then placed in metabolic cages and urine was collected and analyzed at 30 minute intervals. Urine samples (0.1-5.0 ml) were added to 2 ml of a solution containing ferric nitrate (20 mM) and sodium citrate (200 mM). The dark Fe (DDTC)3 complex was extracted into chloroform (4 ml) by vortexing for 5 minutes. The mixture was chilled, centrifuged for 1 minute, and the chloroform layer separated. To this chloroform solution was added saturated aqueous cupric sulfate (2 ml), and the mixture was vortexed for 5 minutes, chilled, and centrifuged for 1 minute. The chloroform solution was separated and the Cu(DDTC)2absorbance measured at 435 nm. Free DDTC was determined by comparison of absorbance to a standard curve. Total DDTC was determined by addition of 0. 05-1.0 ml of urine to 3 ml of saturated cupric sulfate followed by incubation at 45° for 30 minutes. The resulting Cu(DDTC)2 complex was extracted into chloroform and analyzed as described above. DDTC-glucuronide excretion was determined by subtraction of free from total DDTC.

[3] = cited from earlier work
[4] = Platinum excretion kinetics / platinum accumulation after DDP; assay type: in vivo; conditions: four rats
Method: Platinum excretion kinetics were measured in four animals by measuring urinary platinum levels every 30 minutes for 4 hours and then every 2 hours for an additional 12 hours. Urinary platinum concentration declined to <10% of maximal concentration within 1.5 hours and >95% of the platinum excreted by the kidneys had appeared in the urine by this time.

[5] = after DDP; cited from earlier work
[6] = system: Rat mammary tumor 13762; test: Comparative tumor response to DDP with and without NaDDTC rescue, Example 2; assay type: in vivo, Female F344 (Fischer) rats
Method: Female F344 (Fischer) rates, initial weight 100-150 g, were obtained from the Charles River Breeding Laboratory, Wilmington, MA. They were housed in methacrylate cages and given Purina rat chow and water ad libitum for at least one week. Lean weight of the rats were 150 g at the onset of experiments unless otherwise noted.
Mammary Tumor 13762 was obtained in the form of an implanted tumor in a female F344 rat. All intravenous injections were carried out under brief ether anesthesia.
Tumor inoculation was carried out as follows: two rats bearing tumors having a mean diameter of 2.5-3.5 cm were sacrificed using ether anesthesia. The tumors were excised immediately, finely minced, combined, and resuspended in 20-40 ml of normal saline. This suspension was filtered through a gauze pad to remove coarse pieces of tissue and the resulting suspension inoculated subcutaneously (0.2-0.5 ml/injection) into the left flank of each rat.

[7] = mannitol diuresis coupled with intravenous prehydration, dogs; cited from earlier work
[8] = mannitol diuresis coupled with intravenous prehydration, humans; cited from earlier work

For `CCN(CC)C(=S)[S][Na]`, the LD50 [1] is listed as “at least 1,500 mg/kg”, the dose excreted at 2 h ([2]; within 2 hours, read-out: Free ligand in urine, of the initial dose) is listed as less than 0.1% and the dose excreted at 2 h ([2]; read-out: Total DDTC excreted by the kidneys within 2 hours, of the dose given) is listed as 18 to 20%. For the same compound, the Solubility in alcohol ([3]; alcohol) was “also soluble in alcohol” and the Solubility in water ([3]; water) was “highly soluble in water, e.g. in molar quantities”.
In the case of `N.N.[Cl][Pt][Cl]` [DDP, cis-dichlorodiammineplatinum(II), reference compound], the “Fraction of kidney-excreted platinum in the urine by […]” value [4] is given as greater than 95%, the “Urinary platinum concentration within […], of maximal concentration” value [4] is given as less than 10% and the “Time of maximal platinum accumulation (renal tubule)” value [5] is given as 30 to 60 min. The “Other (non-relapsed) rats through day 50” value ([6]; DDP 2 mg/kg i.v., control, n=8) was “essentially free of tumor through day 50”, the “Rats with relapse between days 25 and 30” value ([6]; DDP 2 mg/kg i.v., control, n=8) was 2/8 and the “Rats bearing tumors at day 24” value ([6]; DDP 2 mg/kg without rescue) was 6/8. The “Tumor-free rats at day 24” value ([6]; DDP 2 mg/kg without rescue) was 2/8, the “Mean tumor diameter at day 30” value ([6]; DDP 2 mg/kg without rescue, six rats) was 2.4 cm and the “Mean minimum tumor diameter” value ([6]; DDP 2 mg/kg without rescue, six tumor-bearing rats, day 24) was 1.6 cm. The “Tumor-free rats by day 28” value ([6]; DDP 8 mg/kg, unrescued) was 3/8, the “Animals with spontaneous relapse at the original site” value ([6]; after DDP) was 25-75% and the “Time of spontaneous relapse after DDP administration” value ([6]; rat, in vivo) was “approximately 15 days”.
In the case of `OC[C@@H](O)[C@@H](O)[C@H](O)[C@H](O)CO` [mannitol], the “Amelioration of acute platinum toxicity” value [7] is given as “ameliorate acute toxicity” and the “Amelioration of acute platinum toxicity” value [8] is given as “ameliorate acute toxicity”.
